{
  "source": "patent US20260176289A1",
  "about": "“SMALL MOLECULE INHIBITORS OF KRAS PROTEINS” (Merck Sharp & Dohme LLC, priority 2022, published 2026)",
  "format_in_all_cases": "biochemical",
  "key": {"KRAS-WT": {"biological_target": "KRAS-WT (Homo sapiens, UniProt P01116)", "sequence (P01116 with tags, fused parts or gaps isoform P01116-2)": "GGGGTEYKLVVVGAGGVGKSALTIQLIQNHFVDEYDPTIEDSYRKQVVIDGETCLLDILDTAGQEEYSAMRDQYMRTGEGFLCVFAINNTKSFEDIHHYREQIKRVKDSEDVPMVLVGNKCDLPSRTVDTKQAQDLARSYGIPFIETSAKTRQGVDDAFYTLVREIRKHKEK", "assay": "SOS-catalyzed nucleotide exchange assay (Procedure A, TR-FRET), KRAS-WT", "settings": "nucleotide exchange, read-out: KRAS WT GNE IC50", "in_short": "(§1)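 TR-FRET 520/495 nm ratio read after SOS-driven exchange of Bodipy-GDP for unlabeled GTP (3 mM) on biotinylated RAS bound to Tb-streptavidin. There was a 60 min compound preincubation, RT. Final RAS/SOS and reaction times: G12C 3 nM/40 nM; WT 1 nM/40 nM; NRAS 1.25 nM/40 nM, each 60 min. G12V was 1.25 nM/160 nM, 90 min.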"}, "[1]": {"biological_target": "KRAS-G12C (C51S/C80L/C118S) (Homo sapiens, UniProt P01116, C118S/C51S/C80L/G12C)", "sequence (P01116 with tags, fused parts or gaps isoform P01116-2 G12C/C51S/C80L/C118S)": "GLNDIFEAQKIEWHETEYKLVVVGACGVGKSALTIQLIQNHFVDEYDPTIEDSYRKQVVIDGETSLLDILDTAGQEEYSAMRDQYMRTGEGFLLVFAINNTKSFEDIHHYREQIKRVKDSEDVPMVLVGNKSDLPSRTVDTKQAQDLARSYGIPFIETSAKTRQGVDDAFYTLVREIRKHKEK", "assay": "SOS-catalyzed nucleotide exchange assay (Procedure A, TR-FRET), KRAS-G12C", "settings": "nucleotide exchange, Procedure A; read-out: KRAS G12C GNE IC50", "in_short": "as §1"}, "KRAS-G12V": {"biological_target": "KRAS-G12V (Homo sapiens, UniProt P01116, G12V)", "sequence (P01116 with tags, fused parts or gaps isoform P01116-2 G12V)": "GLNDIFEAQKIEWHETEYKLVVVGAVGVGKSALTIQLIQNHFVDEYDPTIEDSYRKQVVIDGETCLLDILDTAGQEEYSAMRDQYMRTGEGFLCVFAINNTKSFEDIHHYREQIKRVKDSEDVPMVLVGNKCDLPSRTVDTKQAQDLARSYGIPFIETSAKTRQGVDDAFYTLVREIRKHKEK", "assay": "SOS-catalyzed nucleotide exchange assay (Procedure A, TR-FRET), KRAS-G12V", "settings": "nucleotide exchange, read-out: KRAS G12V GNE IC50", "in_short": "as §1"}, "KRAS-G13D": {"biological_target": "KRAS-G13D (Homo sapiens, UniProt P01116, G13D)", "sequence (P01116 with tags, fused parts or gaps isoform P01116-2 G13D)": "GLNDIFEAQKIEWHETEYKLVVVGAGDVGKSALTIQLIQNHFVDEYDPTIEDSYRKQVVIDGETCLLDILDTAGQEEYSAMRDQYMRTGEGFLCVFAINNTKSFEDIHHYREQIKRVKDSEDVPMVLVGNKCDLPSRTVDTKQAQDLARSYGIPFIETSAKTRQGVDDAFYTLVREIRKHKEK", "assay": "SOS-catalyzed nucleotide exchange assay (Procedure A, TR-FRET), KRAS-G13D", "settings": "nucleotide exchange, Procedure A; read-out: KRAS G13D GNE IC50"}},
  "note": "pIC50: −log10 of the molar value.",
  "data": [
    {"smiles": "C#Cc1c(F)ccc2cc(O)cc(-c3nccc4c5c(N6CCOC[C@@](C)(O)C6)nc(OC[C@@]67CCCN6C[C@H](F)C7)nc5n(C)c34)c12", "note": "[Ex-18, (S)-4-(8-(8-ethynyl-7-fluoro-3-hydroxynaphthalen-1-yl)-2-(((2R,7aS)-2-fluorotetrahydro-1H-pyrrolizin-7a(5H)-yl)methoxy)-9-methyl-9H-pyrido[4′,3′:4,5]pyrrolo[2,3-d]pyrimidin-4-yl)-6-methyl-1,4-oxazepan-6-ol]", "values": [
      {"measurement": "pIC50", "setting": "KRAS-WT", "value": 8.84},
      {"measurement": "pIC50", "setting": "[1]", "value": 7.98},
      {"measurement": "pIC50", "setting": "KRAS-G12V", "value": 8.41},
      {"measurement": "pIC50", "setting": "KRAS-G13D", "value": 8.58}
    ]}
  ]
}
